Results on one molecule are retold here after patent US20240101551A1, “CRYSTAL FORM AND SALT FORM OF BROMINE DOMAIN PROTEIN INHIBITOR AND PREPARATION METHOD THEREFOR” (CHIA TAI TIANQING PHARMACEUTICAL GROUP CO., LTD., priority 2020, published 2024).

A short description of this data set: Study on accelerated stability and long-term stability of the crystal form I. Type of data set: physicochemical. As for the experimental part: The crystal form I was placed under the accelerated condition (40±2° C., 75%±5% RH, and packaged) for 1, 2, 3 and 6 months, and under the long-term condition (25±2° C., 65%±5% RH, and packaged) for 3, 6, 9, 12, 18, 24 and 36 months to investigate its acceleration and long-term stability. The inner packaging material of the packaged sample was a double-layer low-density polyethylene bag, and the outer packaging material is a polyester/aluminum/polyethylene composite bag for medicine packaging. The samples after the storage were determined for properties, related substances (HPLC), crystal form (XRD), water content and content to investigate the stability of the product.

Setting [1] is: accelerated, 40° C. ± 2° C., 75% ± 5% RH, packaged, 1 month.
[2] abbreviates: accelerated, 40° C. ± 2° C., 75% ± 5% RH, packaged, 2 months.
The mark [3] stands for this setting: accelerated, 40° C. ± 2° C., 75% ± 5% RH, packaged, 3 months.
Setting [4] is: accelerated, 40° C. ± 2° C., 75% ± 5% RH, packaged, 6 months.
Setting [5] is: long-term, 25° C. ± 2° C., 60% ± 5% RH, packaged, 6 months.

Turning to `Cn1cc(-c2nc(N=S(C)(C)=O)ccc2Oc2ccc(F)cc2F)c2cc[nH]c2c1=O` [crystal form I], the Crystal form change entry runs as follows: under setting [1], “Unchanged”; under setting [2], “Unchanged”; under setting [3], “Unchanged”; under setting [4], “Unchanged”; (long-term, 25° C. ± 2° C., 60% ± 5% RH, packaged, 3 months) “Unchanged”; under setting [5], “Unchanged”. For the same molecule, the Impurity content is, setting by setting: under setting [1], 0.08%; under setting [2], 0.08%; under setting [3], 0.08%; under setting [4], 0.08%; under setting [5], 0.08%; (starting crystal form I) 0.05%. This molecule came in with a Water content under setting [1] of 0.03%; a Water content under setting [2] of 0.03%; a Water content under setting [3] of 0.03%; a Water content under setting [4] of 0.03%; a Water content (starting crystal form I) of 0.02%. For the same molecule, under “influencing factors, accelerated and long-term conditions”, the “Stability (conclusion)” value is listed as “good stability”.
